Test results: EP4813993A1, “COMPOUND, PREPARATION METHOD THEREFOR, AND USE THEREOF” (Sichuan Kelun Pharmaceutical Research Institute Co., Ltd., priority 2023, dated 2025)

Experiments:
[1] = tested on: CFA-induced rat inflammatory pain model; experiment: CFA-induced rat inflammatory pain model, Von Frey test; assay type: in vivo, SD rats; details: SD rats CFA, Mean + SEM, n = 10
Description: Experimental Example 9: Pharmacodynamic effect study of compounds in CFA-induced rat inflammatory pain model Experimental animals: SD rats, male, 180-220 g.
(§1) Compound preparation: 5% (final preparation volume) of DMSO was added to dissolve the test compound, and then 10% (final preparation volume) of Cremophor EL and 85% Saline were sequentially added; an appropriate amount of Celecoxib was weighed, 5% (final preparation volume) of DMSO was added to dissolve the test compound, and then 5% (final preparation volume) of HS-15 and 90% Saline were sequentially added.
SD rats were anesthetized with isoflurane. The right hind paw was disinfected, a needle was inserted subcutaneously at the posterior plantar aspect, and 50 µL of complete Freund's adjuvant (CFA, 1 mg/mL) was administered via subcutaneous injection at the midplantar region, with the needle withdrawn slowly while rotating to prevent leakage. After modeling, local redness and swelling of the soles of the feet, difficulty in walking, and lifting of the affected feet were observed.
(§2) 2. Administration and test
(§3) The Von Frey test was performed once before the surgery. On the second day after animal modeling, animals meeting the baseline requirements were selected for enrollment. The animals were randomly divided into 6 groups based on the 50% PWT values, with 10 animals per group. Administration was performed under a double-blind test protocol. The 50% PWT of the animals was measured separately before administration (baseline) and at 0.5 h, 2 h, and 8 h after administration. The model control group was given normal saline, while the compound groups were given the compounds according to the administration doses in the table below.

[2] = tested on: incision pain model; experiment: Incision pain model in SD rats, Von Frey test; assay type: in vivo; details: SD rats, Mean + SEM, n = 10
Description: Experimental Example 7: Pharmacodynamic effect study of compounds in incision pain model in SD rats
Experimental animals: SD rats, male, 180-220 g.
(§4) Compound preparation: 5% (final preparation volume) of DMSO was added to dissolve the test compound, and then 10% (final preparation volume) of Cremophor EL and 85% Saline were sequentially added.
(§5) A plantar incision pain model was established in rats via surgery before the administration and test. Rats were placed in an anesthesia induction chamber and given 3%-4% isoflurane for anesthesia induction. After the anesthesia induction, a breathing mask was applied, and the isoflurane concentration was adjusted to 1%-2% to prevent the rats from suffering pain during the surgery. Each rat was placed in a supine position, and the surgical site was disinfected with alcohol and iodophor. Under sterile conditions, a 0.5 cm longitudinal incision was made on the left hind paw surface, 0.2 cm away from the heel, extending toward the toes. The skin and fascia were incised; the plantar muscle was separated, slightly lifted, and longitudinally incised. The skin was then sutured with 5-0 sutures and disinfected.
as §2
as §3, with “modeling, the test was repeated, and” for “modeling,”, “h, 4 h, 6 h, or” for “h, and”, “after administration, and a single dose was administered.” for “after administration.”

[3] = tested on: formalin pain model; experiment: Rat formalin pain model; assay type: in vivo, SD rats; details: SD rats, 125 mg/kg p.o. 120 min before 5% formalin, Mean + SD, n = 10
Description: Experimental Example 10: Pharmacodynamic effect study of compounds in rat formalin pain model
Experimental animals: SD rats, male, 180-200 g.
as §1, with “Etoricoxib” for “Celecoxib”, “added; the tramadol injection was diluted with normal saline to the desired concentration.” for “added.”
Each group consisted of 10 animals, and 50 µL of a 5% formalin solution was injected using a microsyringe into the right plantar region.
as §2
Based on different pharmacokinetic properties of the drugs, the administration was performed at 0 min, 60 min, and 120 min before modeling. After injection of the formalin, the number of pain responses in the rats was observed. […] Spontaneous pain responses were observed once every 5 min, and the number of pain responses in the rats within 1 min was counted, with a total observation duration of 60 min. Inhibition rate = (number of pain responses in control group - number of pain responses in administration group)/number of pain responses in control group × 100%.
Table 12. Administration information of compounds of the present disclosure in rat formalin model

[4] = tested on: acetic acid writhing model; experiment: Mouse acetic acid writhing model; assay type: in vivo, ICR mice; details: ICR mice, Dose 50 mg/kg
Description: Experimental Example 11: Pharmacodynamic effect study of compounds in mouse acetic acid writhing model
Experimental animals: ICR mice, male, 20-24 g.
as §1, with “Etoricoxib” for “Celecoxib”
• 1. The mice were randomly grouped based on the body weight for model establishment, with 10 animals per group. A 0.8% (v/v) acetic acid solution was intraperitoneally injected at an injection volume of 10 mL/kg. • 2. Administration and test
Administration was performed 60 min before modeling. After the acetic acid solution was injected, the number of writhing responses in mice was observed. […] The number of writhing responses was observed and recorded during two intervals: 0-15 min and 15-30 min, with a total observation duration of 30 min. Inhibition rate = (number of writhing responses in control group - number of writhing responses in administration group)/number of writhing responses in control group × 100%. The model control group was given normal saline, the positive control group 1 was given etoricoxib at 20 mg/kg, the positive control group 2 was given VX-548 at 50 mg/kg, and the remaining groups were given the compounds of the present disclosure according to the administration doses in the table below.

[5] = target: T1, Nav1.8 channels (Homo sapiens, UniProt Q9Y5Y9); experiment: Manual patch-clamp, current of stably overexpressed Nav1.8 channels (resting state voltage program); assay type: cell-based
T1 construct: expressed in transfected cells
T1 sequence (Q9Y5Y9 whole entry): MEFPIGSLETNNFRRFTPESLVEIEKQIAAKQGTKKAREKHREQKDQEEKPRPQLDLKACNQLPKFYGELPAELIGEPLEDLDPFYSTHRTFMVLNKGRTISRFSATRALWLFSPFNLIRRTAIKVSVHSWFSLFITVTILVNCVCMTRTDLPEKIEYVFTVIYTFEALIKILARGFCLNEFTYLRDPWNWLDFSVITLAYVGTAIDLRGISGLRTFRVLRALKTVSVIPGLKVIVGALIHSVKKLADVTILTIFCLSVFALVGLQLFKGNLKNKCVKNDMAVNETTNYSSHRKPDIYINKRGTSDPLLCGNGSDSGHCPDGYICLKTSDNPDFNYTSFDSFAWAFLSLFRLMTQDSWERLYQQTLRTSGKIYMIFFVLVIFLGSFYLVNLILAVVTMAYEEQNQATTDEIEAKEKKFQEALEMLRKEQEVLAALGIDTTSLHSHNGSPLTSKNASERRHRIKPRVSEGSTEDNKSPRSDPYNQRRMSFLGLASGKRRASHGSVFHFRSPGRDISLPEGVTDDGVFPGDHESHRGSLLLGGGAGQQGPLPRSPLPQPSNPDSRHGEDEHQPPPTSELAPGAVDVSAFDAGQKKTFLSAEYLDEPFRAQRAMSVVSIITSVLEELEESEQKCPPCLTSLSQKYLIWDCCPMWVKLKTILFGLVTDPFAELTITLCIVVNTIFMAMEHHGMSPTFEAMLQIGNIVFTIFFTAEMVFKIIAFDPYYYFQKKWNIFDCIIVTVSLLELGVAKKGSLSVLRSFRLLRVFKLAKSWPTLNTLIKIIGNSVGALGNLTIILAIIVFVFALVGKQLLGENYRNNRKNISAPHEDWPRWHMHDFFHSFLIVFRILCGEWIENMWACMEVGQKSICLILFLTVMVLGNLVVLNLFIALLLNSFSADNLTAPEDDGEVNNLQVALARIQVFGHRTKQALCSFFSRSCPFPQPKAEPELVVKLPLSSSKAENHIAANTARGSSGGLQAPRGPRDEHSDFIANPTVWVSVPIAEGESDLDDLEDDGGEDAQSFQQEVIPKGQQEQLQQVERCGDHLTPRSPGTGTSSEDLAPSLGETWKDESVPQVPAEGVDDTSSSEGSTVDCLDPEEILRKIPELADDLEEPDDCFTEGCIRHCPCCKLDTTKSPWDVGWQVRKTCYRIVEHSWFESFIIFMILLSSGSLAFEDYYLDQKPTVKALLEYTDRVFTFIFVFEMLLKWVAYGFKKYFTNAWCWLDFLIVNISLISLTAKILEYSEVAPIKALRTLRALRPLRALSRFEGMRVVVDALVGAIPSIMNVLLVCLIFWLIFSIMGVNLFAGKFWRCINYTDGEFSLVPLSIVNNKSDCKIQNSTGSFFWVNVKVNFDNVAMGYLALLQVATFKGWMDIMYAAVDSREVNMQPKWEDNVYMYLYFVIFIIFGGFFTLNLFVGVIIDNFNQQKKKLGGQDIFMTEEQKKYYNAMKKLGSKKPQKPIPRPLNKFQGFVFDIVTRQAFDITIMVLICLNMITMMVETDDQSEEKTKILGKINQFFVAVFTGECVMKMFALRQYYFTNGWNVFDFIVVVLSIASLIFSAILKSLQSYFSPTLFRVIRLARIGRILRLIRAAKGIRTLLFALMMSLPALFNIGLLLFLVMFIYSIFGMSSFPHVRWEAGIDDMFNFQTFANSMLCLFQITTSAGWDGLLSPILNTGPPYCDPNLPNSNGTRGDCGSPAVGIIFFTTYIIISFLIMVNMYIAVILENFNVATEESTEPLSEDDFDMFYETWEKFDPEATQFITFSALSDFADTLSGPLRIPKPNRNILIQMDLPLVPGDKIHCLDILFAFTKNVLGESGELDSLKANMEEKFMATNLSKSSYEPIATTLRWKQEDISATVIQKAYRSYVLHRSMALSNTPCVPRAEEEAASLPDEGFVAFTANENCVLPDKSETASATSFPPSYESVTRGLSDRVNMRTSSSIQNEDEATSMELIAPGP
Method in brief: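 Whole-cell manual patch clamp on cells stably overexpressing Nav1.8, held at -120 mV and stepped to 0 mV for 50 ms every 20 s (resting-state protocol). Compounds were perfused in ascending concentrations, each for 5 min or until stable; block of peak current was calculated at steady state.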

[6] = tested on: incision pain model; experiment: Incision pain model in ICR mice, Von Frey test; assay type: in vivo; details: Mean + SEM, n = 10; for PWT 50% value (g) Post-surgery, Preadministration / PWT 50% value (g) Pre-surgery: 50 mg/kg group; for PWT 50% value (g) Post-surgery, Preadministration: baseline before administration; for PWT 50% value (g) Pre-surgery: baseline before surgery; for PWT 50% value (g) 0.5 h / PWT 50% value (g) 2 h / PWT 50% value (g) 4 h: 50 mg/kg single dose; for PWT 50% value (g) 0.5 h: 0.5 h after administration; for PWT 50% value (g) 2 h: 2 h after administration; for PWT 50% value (g) 4 h: 4 h after administration
Description: Experimental Example 6: Pharmacodynamic effect study of compounds in incision pain model in ICR mice Experimental animals: ICR mice, male, 28-35 g.
as §4
as §5, with “in mice” for “in rats”, “test. Mice” for “test. Rats”, “the mice” for “the rats”, “Each mouse” for “Each rat”
as §2
as §3, with “modeling, the test was repeated, and” for “modeling,”, “grouped” for “divided into 6 groups”, “4” for “8”, “administration, and a single dose was administered.” for “administration.”

[7] = tested on: incision pain model; experiment: Incision pain model in ICR mice, Von Frey test; assay type: in vivo; details: 50 mg/kg single dose, Mean + SEM, n = 10

Cc1ccc(-c2cc(C(F)(F)F)nn2-c2ccc(S(N)(=O)=O)cc2)cc1 [Celecoxib, reference compound]
PWT 50% value (g) Post-surgery, Preadministration ([1]; 80 mg/kg group, baseline before administration): 3.12 ± 1.14 g | PWT 50% value (g) Pre-surgery ([1]; 80 mg/kg group, baseline before modeling): 11.74 ± 2.33 g | PWT 50% value (g) Time 0.5 h ([1]; 80 mg/kg, 0.5 h after administration): 5.91 ± 4.09 g | PWT 50% value (g) Time 2 h ([1]; 80 mg/kg, 2 h after administration): 4.66 ± 1.69 g | PWT 50% value (g) Time 8 h ([1]; 80 mg/kg, 8 h after administration): 3.4 ± 1.38 g | PWT 50% value (g) AUC0-8h ([1]; 80 mg/kg): 40.7 ± 15.63 g

COc1c([C@H]2[C@H](C(=O)Nc3ccnc(C(N)=O)c3)O[C@@](C)(C(F)(F)F)[C@H]2C)ccc(F)c1F [VX-548, reference compound]
PWT 50% value (g) Post-surgery, Preadministration ([2]; 125 mg/kg group, baseline before administration): 3.95 ± 1.19 g | PWT 50% value (g) Pre-surgery ([2]; 125 mg/kg group, baseline before surgery): 14.09 ± 1.46 g | PWT 50% value (g) Time 0.5 h ([2]; 125 mg/kg single dose, 0.5 h after administration): 7.61 ± 5.9 g | PWT 50% value (g) Time 2 h ([2]; 125 mg/kg single dose, 2 h after administration): 8.97 ± 3.33 g | PWT 50% value (g) Time 6 h ([2]; 125 mg/kg single dose, 6 h after administration): 6.27 ± 2.34 g | PWT 50% value (g) Time 8 h ([2]; 125 mg/kg single dose, 8 h after administration): 5.89 ± 2.07 g | PWT 50% value (g) AUC0-8h ([2]; 125 mg/kg single dose): 58.66 ± 10.33 g | Number of pain responses 0 min ([3]; 0 min): 24.3±8.5 | Number of pain responses 10 min ([3]; 10 min): 2.4±2.8 | Number of pain responses 15 min ([3]; 15 min): 8.8±6.4 | Number of pain responses 30 min ([3]; 30 min): 13.2±6.3 | Number of pain responses 40 min ([3]; 40 min): 10.1±6.9 | Number of pain responses 50 min ([3]; 50 min): 4.1±4.7 | Number of pain responses 60 min ([3]; 60 min): 4.7±5.6 | Number of writhing responses ([4]; 60 min before 0.8% acetic acid i.p., 30 min observation, Mean + SD, n = 10): 29±16 | Inhibition rate (%) ([4]; inhibition of writhing responses vs control group): 41.24%

COc1c([C@@H]2C[C@](C)(C(F)(F)F)S[C@H]2C(=O)Nc2ccc(NS(N)(=O)=O)c(F)c2)ccc(F)c1F [a-19-A, (2R,3S,5R)-3-(3,4-difluoro-2-methoxyphenyl)-N-[3-fluoro-4-(sulfamoylamino)phenyl]-5-methyl-5-(trifluoromethyl)thiolane-2-carboxamide]
IC50 [5]: 0.34 nM | PWT 50% value (g) Post-surgery, Preadministration [6]: 0.29 ± 0.13 g | PWT 50% value (g) Pre-surgery [6]: 1.33 ± 0.46 g | PWT 50% value (g) 0.5 h [6]: 0.47 ± 0.22 g | PWT 50% value (g) 2 h [6]: 0.51 ± 0.29 g | PWT 50% value (g) 4 h [6]: 0.44 ± 0.18 g | PWT 50% value (g) AUC0-8h [7]: 3.04 ± 0.83 g·h

COc1c([C@@H]2C[C@](C)(C(F)(F)F)S[C@H]2C(=O)Nc2ccnc(NC#N)c2)ccc(F)c1F [a-34-A, (2R,3S,5R)-N-(2-cyanoaminopyridin-4-yl)-3-(3,4-difluoro-2-methoxyphenyl)-5-methyl-5-(trifluoromethyl)tetrahydrothiophene-2-carboxamide]
IC50 [5]: 0.04 nM | PWT 50% value (g) Post-surgery, Preadministration [6]: 0.24 ± 0.03 g | PWT 50% value (g) Pre-surgery [6]: 1.41 ± 0.33 g | PWT 50% value (g) 0.5 h [6]: 0.32 ± 0.15 g | PWT 50% value (g) 2 h [6]: 0.51 ± 0.15 g | PWT 50% value (g) 4 h [6]: 0.35 ± 0.16 g | PWT 50% value (g) AUC0-8h [7]: 2.81 ± 0.57 g·h

CO/N=C(\N)c1cc(NC(=O)[C@@H]2S[C@@](C)(C(F)(F)F)C[C@H]2c2ccc(F)c(F)c2OC)ccn1 [a-57-A]
IC50 [5]: 0.023 nM | PWT 50% value (g) Post-surgery, Preadministration [6]: 0.22 ± 0.02 g | PWT 50% value (g) Pre-surgery [6]: 1.29 ± 0.22 g | PWT 50% value (g) 0.5 h [6]: 0.43 ± 0.18 g | PWT 50% value (g) 2 h [6]: 0.38 ± 0.14 g | PWT 50% value (g) 4 h [6]: 0.29 ± 0.11 g | PWT 50% value (g) AUC0-8h [7]: 4.4 ± 0.41 g·h
